What follows are compounds tested against HIV-1 integrase (assay: Integrase strand-transfer scintillation proximity assay). Settings: full-length wild type HIV-1 integrase (SF1), 50 min at 37°C.
Type: biochemical
Experimental: The annealed product represents preprocessed viral ds-DNA derived from the LTR U5 sequence of the viral genome.
The radiolabeled product was purified using a NENSORB cartridge and stored in stabilized aqueous solution (PerkinElmer).
White, polystyrene, flat-bottom, non-binding surface, 96-well plates were purchased from Corning.
Supernant was discarded and pellet resuspended in 50 mM HEPES pH 7.0, 750 mM NaCl, 5 mM DTT, 1 mM AEBSF and homogenized in a 40 mL Dounce homogenizer for 20 minutes on ice. […] Supernant was discarded and pellet resuspended in 50 mM HEPES pH 7.0, 750 mM NaCl, 25 mM CHAPS, 5 mM DTT, 1 mM AEBSF.
Supernant was then diluted 1:1 with 50 mM HEPES pH 7.0, 25 mM CHAPS, 1 mM DTT, 1 mM AEBSF and loaded onto a Q-Sepharose column pre-equilibrated with 50 mM HEPES, pH 7.0, 375 mM NaCl, 25 mM CHAPS, 1 mM DTT, 1 mM AEBSF. The flow through peak was collected and NaCl diluted to 0.1 M with 50 mM HEPES pH 7.0, 25 mM CHAPS, 1 mM DTT, 0.5 mM AEBSF and loaded onto a SP-Sepharose column pre-equilibrated with 50 mM HEPES pH 7.0, 100 mM NaCl, 25 mM CHAPS, 1 mM DTT, 0.5 mM AEBSF. After washing the column with the equilibration buffer, a 100 to 400 mM NaCl gradient was run. The eluted integrase was concentrated and run on a S-300 gel diffusion column using 50 mM HEPES pH 7.0, 500 mM NaCl, 25 mM CHAPS, 1 mM DTT, 0.5 mM AEBSF. […]

Question: With “1-[({[(4R)-2,2-dimethyl-1,3-dioxolan-4-yl]methyl}amino)meth yl]-3-(4-fluorobenzyl)-7-hydroxy-3,7-dihydro-6H-pyrrolo[2,3-c]-1,7-naphthyridin-6-one [Example 35]” as the compound, how does the IC50 read?
Answer: 45 nM

Question: How did the IC50 turn out when “(3R)-1-{[3-(4-fluorobenzyl)-7-hydroxy-6-oxo-6,7-dihydro-3H-pyrrolo[2,3-c]-1,7-naphthyridin-1-yl]methyl)-N,N-dimethylpyrrolidine-3-carboxamide [Example 17]” was run?
Answer: 9 nM

The compounds below were run on RF strain of HIV-1 (assay: HIV-1 cell protection assay (XTT dye reduction)). Settings: Human immunodeficiency virus 1, CEM-SS, 144 h, CEM-SS cells infected with HIV-1 RF, six days, XTT formazan; read-out: EC50.
Type: cell-based
Experimental: Example 61: HIV-1 Cell Protection Assay
The antiviral activities of potential modulator compounds (test compounds) were determined in HIV-1 cell protection assays using the RF strain of HIV-1, CEM-SS cells, and the XTT dye reduction method (Weislow, O.S. et al., J. Natl. Cancer Inst. 81: 577-586 (1989)). Subject cells were infected with HIV-1 RF virus at an moi of 0.025 to 0.819 or mock infected with medium only and added at 2 x 10^4 cells per well into 96 well plates containing half-log dilutions of test compounds. Six days later, 50 µl of XTT solution (1 mg/ml XTT tetrazolium and […] phenazine methosulfate) were added to the wells and the plates were reincubated for four hours. Viability, as determined by the amount of XTT formazan produced, was quantified spectrophotometrically by absorbance at 450 nm.
Data from CPE assays were expressed as the percent of formazan produced in compound-treated cells compared to formazan produced in wells of uninfected, compound-free cells. […] The therapeutic index was calculated by dividing the cytotoxicity (CC50) by the antiviral activity (EC50).

Question: `O=c1c2ncc3c(c(COCCOC4CCCCC4)cn3Cc3ccc(F)cc3)c2ccn1O` [Example 34, 1-{[2-(cyclohexyloxy)ethoxy]methyl}-3-(4-fluorobenzyl)-7-hydroxy-3,7-dihydro-6H-pyrrolo[2,3-c]-1,7-naphthyridin-6-one] was tested. Which EC50 did it give?
Answer: 2 nM

Question: Which EC50 does the source give for `COCCOCc1cn(Cc2ccc(F)cc2)c2cnc3c(=O)n(O)ccc3c12` [Example 36, 3-(4-fluorobenzyl)-7-hydroxy-1-[(2-methoxyethoxy)methyl]-3,7-dihydro-6H-pyrrolo[2,3-c]-1,7-naphthyridin-6-one] here?
Answer: 0.4 nM

Question: How did the EC50 turn out when `O=c1c2ncc3c(c(COC4CCOCC4)cn3Cc3ccc(F)cc3)c2ccn1O` [Example 37, 3-(4-fluorobenzyl)-7-hydroxy-1-[(tetrahydro-2H-pyran-4-yloxy)methyl]-3,7-dihydro-6H-pyrrolo[2,3-c]-1,7-naphthyridin-6-one] was run?
Answer: 1 nM

Question: `O=c1c2ncc3c(c(CNC4(CO)CCCC4)cn3Cc3ccc(F)cc3)c2ccn1O` [Example 39, 3-(4-fluorobenzyl)-7-hydroxy-1-({[1-(hydroxymethyl)cyclopentyl]amino}methyl)-3,7-dihydro-6H-pyrrolo[2,3-c]-1,7-naphthyridin-6-one] was tested. Which EC50 did it give?
Answer: 4 nM

Question: For `CCCNCc1cn(Cc2ccc(F)cc2)c2cnc3c(=O)n(O)ccc3c12` [Example 40, 3-(4-fluorobenzyl)-7-hydroxy-1-[(propylamino)methyl] -3,7-dihydro-6H-pyrrolo[2,3-c]-1,7-naphthyridin-6-one], which EC50 is on record?
Answer: 2 nM

Question: With `Cc1cccc(CNCc2cn(Cc3ccc(F)cc3)c3cnc4c(=O)n(O)ccc4c23)c1` [Example 41, 3-(4-fluorobenzyl)-7-hydroxy-1-{[(3-methylbenzyl)amino]methyl}-3,7-dihydro-6H-pyrrolo[2,3-c]-1,7-naphthyridin-6-one] as the compound, how does the EC50 read?
Answer: 3 nM

Question: How did the EC50 turn out when `Cc1cnc(CNCc2cn(Cc3ccc(F)cc3)c3cnc4c(=O)n(O)ccc4c23)cn1` [Example 42, 3-(4-fluorobenzyl)-7-hydroxy-1-({[(5-methylpyrazin-2-yl)methyl]amino}methyl)-3,7-dihydro-6H-pyrrolo[2,3-c]-1,7-naphthyridin-6-one] was run?
Answer: 3 nM

Question: For `O=c1c2ncc3c(c(CNCc4ccc(C(F)(F)F)cc4)cn3Cc3ccc(F)cc3)c2ccn1O` [Example 43, 3-(4-fluorobenzyl)-7-hydroxy-1-({[4-(trifluoromethyl)benzyl]amino)methyl)-3,7-dihydro-6H-pyrrolo[2,3-c]-1,7-naphthyridin-6-one], which EC50 is on record?
Answer: 0.8 nM

Question: How did the EC50 turn out when `O=c1c2ncc3c(c(CNCc4ccccn4)cn3Cc3ccc(F)cc3)c2ccn1O` [Example 44, 3-(4-fluorobenzyl)-7-hydroxy-1-{[(pyridin-2-ylmethyl)amino]methyl}-3,7-dihydro-6H-pyrrolo[2,3-c]-1,7-naphthyridin-6-one] was run?
Answer: 0.74 nM

Question: With `O=C1c2ncc3c(ccn3Cc3ccc(F)cc3)c2CCCN1O` [Example 45, 3-(4-fluorobenzyl)-7-hydroxy-7,8,9,10-tetrahydropyrrolo[3',2' :4,5]pyrido[2,3-c]azepin-6(3H)-one] as the compound, how does the EC50 read?
Answer: 20 nM

Question: For `CCCCc1cc2c(ncc3c2ccn3Cc2ccc(F)cc2)c(=O)n1O` [Example 46, 8-butyl-3-(4-fluorobenzyl)-7-hydroxy-3,7-dihydro-6H-pyrrolo[2,3-c]-1,7-naphthyridin-6-one], which EC50 is on record?
Answer: 9.6 nM

Question: How did the EC50 turn out when `Cc1cc2c(ncc3c2ccn3Cc2ccc(F)cc2)c(=O)n1O` [Example 47, 3-(4-fluorobenzyl)-7-hydroxy-8-methyl-3,7-dihydro-6H-pyrrolo[2,3-c]-1,7-naphthyridin-6-one] was run?
Answer: 0.23 nM

Question: With `CCCN(CCO)Cc1cn(Cc2ccc(F)cc2)c2cnc3c(=O)n(O)ccc3c12` [Example 48, 3-(4-fluorobenzyl)-7-hydroxy-1-{[(2-hydroxyethyl)(propyl)amino]methyl}-3,7-dihydro-6H-pyrrolo[2,3-c]-1,7-naphthyridin-6-one] as the compound, how does the EC50 read?
Answer: 1.2 nM

Question: With `O=c1c2ncc3c(c(CN4CCCCC4CO)cn3Cc3ccc(F)cc3)c2ccn1O` (centres unmarked) [Example 49, 3-(4-fluorobenzyl)-7-hydroxy-1-{[2-(hydroxymethyl)piperidin-1-yl]methyl}-3,7-dihydro-6H-pyrrolo[2,3-c]-1,7-naphthyridin-6-one] as the compound, how does the EC50 read?
Answer: 14 nM

Question: For `CCN(CC)CCN(CC)Cc1cn(Cc2ccc(F)cc2)c2cnc3c(=O)n(O)ccc3c12` [Example 50, 1-{[[2-(diethylamino)ethyl](ethyl)amino]methyl}-3-(4-fluorobenzyl)-7-hydroxy-3,7-dihydro-6H-pyrrolo[2,3-c]-1,7-naphthyridin-6-one], which EC50 is on record?
Answer: 8.6 nM

Question: `CCN(Cc1ccc(C)cc1)Cc1cn(Cc2ccc(F)cc2)c2cnc3c(=O)n(O)ccc3c12` [Example 51, 1-{[ethyl(4-methylbenzyl)amino]methyl}-3-(4-fluorobenzyl)-7-hydroxy-3,7-dihydro-6H-pyrrolo[2,3-c]-1,7-naphthyridin-6-one] was tested. Which EC50 did it give?
Answer: 1.3 nM

Question: Which EC50 does the source give for `CCS(=O)(=O)N1CCN(Cc2cn(Cc3ccc(F)cc3)c3cnc4c(=O)n(O)ccc4c23)CC1` [Example 52, 1-{[4-(ethylsulfonyl)piperazin-1-yl]methyl}-3-(4-fluorobenzyl)-7-hydroxy-3,7-dihydro-6H-pyrrolo[2,3-c]-1,7-naphthyridin-6-one] here?
Answer: 1.6 nM

Question: Which EC50 does the source give for `O=c1c2ncc3c(c(CN4CCC(O)CC4)cn3Cc3ccc(F)cc3)c2ccn1O` [Example 53, 3-(4-fluorobenzyl)-7-hydroxy-1-[(4-hydroxypiperidin-1-yl)methyl]-3,7-dihydro-6H-pyrrolo[2,3-c]-1,7-naphthyridin-6-one] here?
Answer: 13 nM

Question: `CN(Cc1ccccc1)Cc1cn(Cc2ccc(F)cc2)c2cnc3c(=O)n(O)ccc3c12` [Example 54, 1-{[benzyl(methyl)amino]methyl}-3-(4-fluorobenzyl)-7-hydroxy-3,7-dihydro-6H-pyrrolo[2,3-c]-1,7-naphthyridin-6-one] was tested. Which EC50 did it give?
Answer: 0.42 nM

Question: How did the EC50 turn out when `O=c1c2ncc3c(c(CN4CCN5C[C@H](O)CC5C4)cn3Cc3ccc(F)cc3)c2ccn1O` (stereo partly drawn) [Example 55, 3-(4-fluorobenzyl)-7-hydroxy-1-{[(7R)-7-hydroxyhexahydropyrrolo[1,2-a]pyrazin-2(1 H)-yl]methyl}-3,7-dihydro-6H-pyrrolo[2,3-c]-1,7-naphthyridin-6-one] was run?
Answer: 69 nM

Question: `O=C1NC[C@@H]2CCN(Cc3cn(Cc4ccc(F)cc4)c4cnc5c(=O)n(O)ccc5c34)C[C@H]12` [Example 56, 3-(4-fluorobenzyl)-7-hydroxy-1-{[(3aR,7aR)-3-oxooctahydro-5H-pyrrolo[3,4-c]pyridin-5-yl]methyl}-3,7-dihydro-6H-pyrrolo[2,3-c]-1,7-naphthyridin-6-one] was tested. Which EC50 did it give?
Answer: 14 nM

Question: Which EC50 does the source give for `O=c1c2ncc3c(c(CN4CCOCC4)cn3Cc3ccc(F)cc3)c2ccn1O` [Example 57, 3-(4-fluorobenzyl)-7-hydroxy-1-(morpholin-4-ylmethyl)-3,7-dihydro-6H-pyrrolo[2,3-c]-1,7-naphthyridin-6-one] here?
Answer: 0.32 nM

Question: Which EC50 does the source give for `O=c1c2ncc3c(c(CN4CCN(CCN5CCOCC5)CC4)cn3Cc3ccc(F)cc3)c2ccn1O` [Example 58, 3-(4-fluorobenzyl)-7-hydroxy-1-{[4-(2-morpholin-4-ylethyl)piperazin-1-yl]methyl}-3,7-dihydro-6H-pyrrolo[2,3-c]-1,7-naphthyridin-6-one] here?
Answer: 32 nM

Question: With `CN(Cc1cnn(-c2ccccc2)c1)Cc1cn(Cc2ccc(F)cc2)c2cnc3c(=O)n(O)ccc3c12` [Example 59, 3-(4-fluorobenzyl)-7-hydroxy-1-({methyl[(1-phenyl-1 H-pyrazol-4-yl)methyl]amino}methyl)-3,7-dihydro-6H-pyrrolo[2,3-c]-1,7-naphthyridin-6-one] as the compound, how does the EC50 read?
Answer: 0.74 nM

Reference: patent publication EP1873155A1, “Inhibitors of the HIV integrase enzyme” (PFIZER INC., priority 2004, dated 2005)
